Results reported in article PMC5797143, “Epigenetic modulation of inflammation and synaptic plasticity promotes resilience against stress in mice” (Nature Communications, 2018).
pEC50, pIC50: −log10 of the molar value. Where two headings read alike, the source gives them in different places.

How the values were obtained:
[1] = Cytotoxicity by high content screening (HCS); type: cell-based; conditions: human, HepG2 cells
Source text: Based on the efficacy of DHCA/Mal-gluc in treating stress-induced depression, we initiated an in vitro toxicity and drug-like properties studies to investigate the potential of developing these two phytochemicals as novel therapies. […] At low concentrations, DHCA and Mal-gluc had no detectable effects on cell number, nuclear size, DNA structure, cell membrane permeability, mitochondrial mass, mitochondrial membrane potential or cytochrome C release in high content screening (HCS)[41] using HepG2 cells (Table 1). At high concentrations, Mal-gluc reduced cell number, increased nuclear size, […], and increased mitochondrial mass, with calculated EC50s beyond physiological concentration (Table 1).
MTT and LDH release assays were conducted in MSN-enriched primary neurons and in PBMCs[64]. Cellular cytotoxicity was conducted in HepG2 cells using high content screening (HCS) protocols. Briefly, HepG2 cells were plated on 384-well tissue culture treated black walled clear bottomed polystyrene plates and treated with varying concentrations of Mal-gluc or DHCA. The cells were loaded with the relevant dye/antibody for each cell-health marker following incubation, including cell count, markers for nuclear size, DNA structure, cell membrane permeability, mitochondrial mass, mitochondrial membrane potential and cytochrome C release. The plates were then scanned using an automated fluorescent cellular imager ArrayScanr (Thermo Scientific Cellomics).

[2] = test system: CpG-rich sequences of mouse IL-6 promoter and introns 1, 3; test: CpG-free luciferase reporter with IL-6 promoter/intron CpG-rich segments in N2a cells; type: cell-based; conditions: 24 h
Method: To investigate how DHCA may attenuate IL-6 generation, we tested the effect of DHCA on Toll-like receptor-4 mediated signaling pathways. PBMCs were pretreated with DHCA and stimulated with LPS using the same protocol as during screening. Samples were taken at 0, 30 min, 60 min, 6 h and 16 h following LPS stimulation and cell lysates were subjected to a multiplex ELISA assay. […] Based on evidence that DNA methylation at a single CpG in the human IL-6 promoter region effectively alters IL-6 expression, we next tested whether DHCA can modulate IL-6 gene expression through methylation mechanisms. We treated PBMC cells with DHCA and measured the expression of enzymes essential for DNA methylation/demethylation. […] To investigate how methylation influences IL-6 gene expression, we employed the CpG-free luciferase reporter system. We cloned a ~280 bp CpG rich DNA segment from the mouse IL-6 promoter into a promoterless CpG-free reporter construct and transfected into N2a cells. We found the CpG-rich IL-6 promoter segment presented no inherent promoter activity as reflected by no differences in luciferase activity compared to the control construct (Fig. 2f). […] We then cloned CpG rich DNA segments from IL-6 introns 1, 3 or 4 into the CpG-free luciferase reporter construct with a minimal EF1 promoter and no enhancer activity. […] In contrast, the CpG-rich region of IL-6 intron 4 presented no observable enhancer activity (Fig. 2g). […] To test whether DHCA may influence the expression of other pro-inflammatory factors, we measured the level of secreted cytokines following LPS stimulation (Supplementary Fig. 3).
CpG-rich motif from mouse IL-6 promoter and intron 1, intron 3, and intron 4 were cloned into basic (no promoter or enhancer) or promoter (minimal EF1 promoter with no enhancer) pCpG-free Lucia plasmid (InvivoGen) using In-Fusion Cloning Kit (Clontech Laboratories). Plasmids were prepared in E. coli GT115 cells and expressed in N2A neuoblastoma cells using lipofectamine 2000 (ThermoFisher) according to manufacturer’s instruction. Following overnight recovery, cells were subjected to 5 µM of methylation inhibitor 5-Aza-2′-deoxycytidine (AZA-DC) or DHCA treatment. Twenty-four hours later, 10 µl of medium was incubated with 50 µl of QUANTI-Luc luciferase substrate for luciferase activity assessment.

IL-6 = test: LPS-induced IL-6 production in PBMCs (screening, dose response); type: cell-based, mouse
Source text: BDPP contains a variety of polyphenols. Orally consumed polyphenols are typically bioavailable in various organs and tissues as metabolites (phase II polyphenol conjugates and phenolic acids) following xenobiotic metabolism and gastrointestinal microbiome fermentation. It is possible that some metabolites may counteract the positive effect of the others. Therefore, if supplied as BDPP, the overall benefits might be reduced due to potential ‘cancellation’ effects. By identifying individual metabolites that selectively target key pathological mechanisms (e.g., Rac1 and IL-6) we can greatly improve the efficacy. We and others recently identified 21 BDPP-derived phenolic metabolites that accumulate in blood and/or in the CNS (14 polyphenolic metabolites and 7 phenolic acids, Supplementary Table 1)[25], [28], [33], among which 14 are currently accessible, [34]. We initiated a high-throughput screen of these metabolites for their ability to modulate IL-6 and Rac1. Peripheral blood mononuclear cells (PBMCs) isolated from C57BL/6 mice were pretreated with plasma bioavailable metabolites (Supplementary Table 1) for 16 h followed by stimulation with lipopolysaccharide (LPS) for 16 h. […] In parallel studies, we screened 9 brain bioavailable metabolites using E18 MSN-enriched primary culture.
Whole blood from mice was mixed with complete RPMI media and laid over the Ficoll-Paque Plus (GE Healthcare, Sweden), centrifuged at 2200 r.p.m. for 15 min. The buffy coat containing PBMCs were isolated, washed once with BEP (0.5% BSA, 2 mM EDTA in PBS) and plated out in a 24-well plate at 5 × 10^5/well in culture medium RPMI-1640 supplemented with 20% horse serum, 10% FBS, 2 mM L-glutamine, 25 mM Hepes and 100 U/ml penicillin/streptomycin. PBMCs were treated with various phenolic acids for 16 h and challenged with 7.5 µg/ml LPS. Supernatant was collected by centrifugation following 16 h of LPS stimulation and the levels of IL-6 were measured using the Mouse IL-6 Quantikine ELISA Kit from R & D System.

[3] = test system: DNA-methyltransferase 1 (DNMT1); test: Expression of DNA methylation/demethylation enzymes in PBMCs; type: cell-based, mouse
Method: To investigate how DHCA may attenuate IL-6 generation, we tested the effect of DHCA on Toll-like receptor-4 mediated signaling pathways. PBMCs were pretreated with DHCA and stimulated with LPS using the same protocol as during screening. Samples were taken at 0, 30 min, 60 min, 6 h and 16 h following LPS stimulation and cell lysates were subjected to a multiplex ELISA assay. […] Based on evidence that DNA methylation at a single CpG in the human IL-6 promoter region effectively alters IL-6 expression, we next tested whether DHCA can modulate IL-6 gene expression through methylation mechanisms. We treated PBMC cells with DHCA and measured the expression of enzymes essential for DNA methylation/demethylation. […] To investigate how methylation influences IL-6 gene expression, we employed the CpG-free luciferase reporter system. […] To test whether DHCA may influence the expression of other pro-inflammatory factors, we measured the level of secreted cytokines following LPS stimulation (Supplementary Fig. 3).
Total RNA from MSN-enriched cultures or brain NAc was isolated using the RNeasy Mini Kit (Qiagen, Valencia, CA, USA) and reverse transcribed. Gene expression was measured in four replicates by quantitative RT-PCR using Maxima SYBR Green master mix (Fermentas) in ABI Prism 7900HT. […]

Work on O=C(O)CCc1ccc(O)c(O)c1 [DHCA, 3(3,4-dihydroxy-phenyl) propionic acid] yielded an AC50 ([1]; DHCA ↑ (NS, fit not statistically significant), NR = No response observed, read-out: Cytotoxicity by HCS (AC50), Mitochondrial membrane potential) greater than 200 µM, an AC50 ([1]; DHCA ↑, NR = No response observed, read-out: Cytotoxicity by HCS (AC50), Cytochrome C release) greater than 200 µM and an AC50 ([1]; Malvidin-gluc ↑, NR = No response observed, read-out: Cytotoxicity by HCS (AC50), Mitochondrial mass) greater than 200 µM. It also gave an AC50 ([1]; Malvidin-gluc ↑, NR = No response observed, read-out: Cytotoxicity by HCS (AC50), Nuclear size) greater than 200 µM, an AC50 ([1]; Malvidin-gluc ↓, NR = No response observed, read-out: Cytotoxicity by HCS (AC50), Cell number) greater than 200 µM and an AC50 ([1]; NR = No response observed, read-out: Cytotoxicity by HCS (AC50), DNA structure) greater than 200 µM. The AC50 ([1]; both ↓, read-out: Cytotoxicity by HCS (AC50), Cell membrane permeability) was 56.6 µM, the “luciferase (enhancer) activity, IL-6 intron 1” value [2] was “partially attenuated” and the “luciferase (enhancer) activity, IL-6 intron 3” value [2] was “totally abolished”. For the same molecule, the “primary screening, LPS-induced IL-6 production” value (IL-6; 14 plasma bioavailable metabolites screened) was “most effective in reducing LPS-induced IL-6 production”, the pIC50 (IL-6; Mus musculus, PBMC, PBMCs pretreated 16 h, then LPS 16 h, read-out: calculated IC50, reducing LPS-induced IL-6 production) was 4.75 and the pEC50 (IL-6; Mus musculus, PBMC, dose response in PBMCs following LPS stimulation, read-out: EC50 (IL-6 response), Fig. 2b) was 4.75. The “expression of DNMT1” value [3] was “significantly reduced”.
